The nature of test [1]: Cytotoxicity against human K562/4 cells assessed as reduction in cell viability measured after 72 hrs by MTT assay. It counts as cell-based. As to conditions: K562/4, 72 h. On the technique in general: Tetrazolium assays rely on reduction of a dye to a coloured formazan, in cell work by metabolically active cells.
Test [2] can be described thus: Inhibition of P-gp mediated multidrug resistance in human K562/4 cells assessed as sensitization of cells to doxorubicin by measuring reduction in cell viability preincubated with compound for 30 mins prior to 1 uM doxorubicin addition and measured after 72 hrs by MTT assay. Type of test: cell-based.
In the next test the test system is K562/4. Particulars: Homo sapiens.

This note sets out measurements from ChEMBL document CHEMBL4765322, “Novel curcumin derivatives as P-glycoprotein inhibitors: Molecular modeling, synthesis and sensitization of multidrug resistant cells to doxorubicin” (Eur J Med Chem, 2020).

Description for K562/4: Inhibition of P-gp-mediated doxorubicin efflux in human K562/4 cells assessed as minimal concentration required for the effect by flow cytometric analysis

Consider `CCNS(=O)(=O)c1ccc(-n2nc(/C=C/c3ccc(OC)c(OC)c3)cc2/C=C/c2ccc(OC)c(OC)c2)cc1`, for which the IC50 in test [1] was above 50 µM; in test [2] it was 0.5 µM.

On to `CCOC(=O)c1ccc(-n2nc(/C=C/c3ccc(O)cc3)cc2/C=C/c2ccc(O)cc2)cc1`, for which, in test [1], the IC50 stood at 11.1 µM.

Regarding `CCOC(=O)c1ccc(-n2nc(/C=C/c3ccc(OC)c(OC)c3)cc2/C=C/c2ccc(OC)c(OC)c2)cc1[N+](=O)[O-]`, the IC50 in test [1] was above 50 µM.

With `COc1ccc(/C=C/c2cc(/C=C/c3ccc(OC)c(OC)c3)n(-c3ccc(C(=O)N4CCCC4)cc3)n2)cc1OC`, the IC50 is above 50 µM in test [1] and 0.5 µM in test [2].

`CCNC(=S)c1ccc(-n2nc(/C=C/c3ccc(OC)c(OC)c3)cc2/C=C/c2ccc(OC)c(OC)c2)cc1`: the IC50 in test [1] was above 50 µM; in test [2] it was 0.5 µM.

`COc1cc(/C=C/c2cc(/C=C/c3ccc(O)c(OC)c3)n(-c3ccc(C(=O)OC/C=C(\C)CCC=C(C)C)cc3)n2)ccc1O`: in test [1], the IC50 is above 25 µM.

As to `COc1cc2c(cc1OC)CN(CCc1ccc(NC(=O)c3cc(OC)c(OC)cc3NC(=O)c3cnc4ccccc4c3)cc1)CC2`, the MED with K562/4 was 1 µM.

For the compound `COc1cc(/C=C/c2cc(/C=C/c3ccc(O)c(OC)c3)n(-c3ccc(C(=O)OC(C)C)cc3)n2)ccc1O`, the IC50 in test [1] was found to be 12.5 µM.

Take `CCNC(=O)c1ccc(-n2nc(/C=C/c3ccc(OC)c(OC)c3)cc2/C=C/c2ccc(OC)c(OC)c2)cc1`: the IC50 in test [1] is above 50 µM; in test [2], 0.2 µM.

On to `CCOC(=O)c1ccc(-n2nc(/C=C/c3ccc(O)c(OC)c3)cc2/C=C/c2ccc(O)c(OC)c2)cc1F`, for which the IC50 in test [1] was 5.4 µM.

For the compound `CCOC(=O)c1ccc(-n2nc(/C=C/c3ccc(O)cc3)cc2/C=C/c2ccc(O)cc2)cc1F`, the IC50 in test [1] is 10.3 µM.

As for `COc1cc(/C=C/c2cc(/C=C/c3ccc(O)c(OC)c3)n(-c3ccc(F)cc3)n2)ccc1O`, the IC50 in test [1] was determined as 10.8 µM.

As to `COc1cc(/C=C/c2cc(/C=C/c3ccc(O)c(OC)c3)n(-c3ccc(C(=O)OCC(F)(F)F)cc3)n2)ccc1O`, the IC50 in test [1] was above 25 µM.

On to `COC(=O)c1ccc(-n2nc(/C=C/c3ccc(O)c(OC)c3)cc2/C=C/c2ccc(O)c(OC)c2)cc1`, for which the IC50 in test [1] amounted to 9.6 µM.

Turning to `CCOC(=O)c1ccc(-n2nc(/C=C/c3ccc(OC)c(OC)c3)cc2/C=C/c2ccc(OC)c(OC)c2)cc1F`, the IC50 in test [1] is above 50 µM; in test [2], 0.2 µM.

Take `COc1cc(/C=C/c2cc(/C=C/c3ccc(O)c(OC)c3)n(-c3ccc(C(=O)OCC(C)C)cc3)n2)ccc1O`: the IC50 in test [1] is 6.4 µM.

Regarding `COc1cc(/C=C/c2cc(/C=C/c3ccc(O)c(OC)c3)n(-c3ccc(C(=O)OC/C=C(\C)CC/C=C(\C)CCC=C(C)C)cc3)n2)ccc1O`, the IC50 in test [1] is above 25 µM.

Turning to `COc1ccc(/C=C/c2cc(/C=C/c3ccc(OC)c(OC)c3)n(-c3ccc(C(=O)NCC(C)C)cc3)n2)cc1OC`, the half-inhibitory concentration (IC50) was above 50 µM in test [1] and 0.4 µM in test [2].

As to `COc1cc(/C=C/c2cc(/C=C/c3ccc(O)c(OC)c3)n(-c3ccc(C(=O)OC(C)(C)C)cc3)n2)ccc1O`, the IC50 in test [1] was above 25 µM.

For `CCOC(=O)c1ccc(-n2nc(/C=C/c3ccc(OC)c(OC)c3)cc2/C=C/c2ccc(OC)c(OC)c2)cc1`, the IC50 is above 50 µM in test [1] and 0.8 µM in test [2].

As for `CCNC(=O)c1ccc(-n2nc(/C=C/c3ccc(O)c(OC)c3)cc2/C=C/c2ccc(O)c(OC)c2)cc1`, the IC50 in test [1] is 4.3 µM.

With `CCNC(=O)c1ccc(-n2nc(/C=C/c3ccc4c(c3)OCO4)cc2/C=C/c2ccc3c(c2)OCO3)cc1`, the IC50 in test [1] is above 50 µM.

As for `CCOC(=O)c1ccc(-n2nc(/C=C/c3ccc(O)c(OC)c3)cc2/C=C/c2ccc(O)c(OC)c2)cc1`, the IC50 in test [1] came out at 10.2 µM.

As a reminder, the IC50 is the concentration that inhibits the measured activity by half.
